# Measurements reported in article PMC4352019, “Bioactivity-Guided Fractionation of an Antidiarrheal Chinese Herb Rhodiola kirilowii (Regel) Maxim Reveals (-)–Epicatechin-3-Gallate and (-)–Epigallocatechin-3-Gallate as Inhibitors of Cystic Fibrosis Transmembrane Conductance Regulator” (PLoS ONE, 2015).
# Target: T1, Cystic fibrosis transmembrane conductance regulator (CFTR) (Homo sapiens, UniProt P13569)
# T1 construct: human wild-type CFTR stably expressed in FRT cells
# Test: YFP-H148Q iodide influx fluorescence assay in CFTR-expressing FRT cells; supported by short-circuit current in rat colonic mucosa
# Assay type: cell-based
# T1 sequence (P13569 whole entry): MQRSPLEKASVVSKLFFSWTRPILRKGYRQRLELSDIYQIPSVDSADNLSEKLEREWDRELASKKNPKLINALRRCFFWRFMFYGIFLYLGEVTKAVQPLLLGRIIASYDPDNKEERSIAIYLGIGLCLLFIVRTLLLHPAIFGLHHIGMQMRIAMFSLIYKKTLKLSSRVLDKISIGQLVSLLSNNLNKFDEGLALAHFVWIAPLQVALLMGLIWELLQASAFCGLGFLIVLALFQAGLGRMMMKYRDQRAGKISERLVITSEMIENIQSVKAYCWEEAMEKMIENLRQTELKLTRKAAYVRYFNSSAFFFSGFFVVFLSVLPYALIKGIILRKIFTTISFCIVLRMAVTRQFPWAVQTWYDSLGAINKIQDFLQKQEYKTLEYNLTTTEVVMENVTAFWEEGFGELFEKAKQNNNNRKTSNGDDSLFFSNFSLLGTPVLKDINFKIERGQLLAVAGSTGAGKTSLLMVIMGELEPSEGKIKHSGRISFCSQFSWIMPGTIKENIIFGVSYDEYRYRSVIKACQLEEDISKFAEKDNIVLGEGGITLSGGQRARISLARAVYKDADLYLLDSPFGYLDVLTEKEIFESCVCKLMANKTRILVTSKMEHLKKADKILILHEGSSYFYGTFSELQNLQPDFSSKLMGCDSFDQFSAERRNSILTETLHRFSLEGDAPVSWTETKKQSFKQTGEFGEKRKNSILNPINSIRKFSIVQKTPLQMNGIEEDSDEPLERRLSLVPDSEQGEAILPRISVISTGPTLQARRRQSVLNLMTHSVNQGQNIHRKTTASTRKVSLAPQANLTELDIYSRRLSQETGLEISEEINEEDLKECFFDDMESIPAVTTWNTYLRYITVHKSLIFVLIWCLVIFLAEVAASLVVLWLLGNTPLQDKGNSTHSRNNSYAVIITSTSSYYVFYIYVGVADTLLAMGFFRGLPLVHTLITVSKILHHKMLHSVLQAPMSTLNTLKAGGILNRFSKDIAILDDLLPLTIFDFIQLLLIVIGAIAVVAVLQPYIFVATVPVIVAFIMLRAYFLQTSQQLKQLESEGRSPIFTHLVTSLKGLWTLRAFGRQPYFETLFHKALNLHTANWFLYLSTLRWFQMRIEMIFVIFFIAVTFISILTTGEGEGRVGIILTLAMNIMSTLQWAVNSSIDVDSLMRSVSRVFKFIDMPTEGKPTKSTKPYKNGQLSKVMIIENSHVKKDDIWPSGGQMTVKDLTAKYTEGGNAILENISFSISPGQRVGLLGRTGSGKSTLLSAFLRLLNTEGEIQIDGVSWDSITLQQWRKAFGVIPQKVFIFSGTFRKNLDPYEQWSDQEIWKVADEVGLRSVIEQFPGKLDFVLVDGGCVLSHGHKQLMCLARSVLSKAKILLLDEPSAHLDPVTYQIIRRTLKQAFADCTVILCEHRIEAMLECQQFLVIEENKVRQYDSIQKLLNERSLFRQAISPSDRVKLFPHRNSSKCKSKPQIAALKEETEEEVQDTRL
smiles,measurement,value
"O=C(O[C@@H]1Cc2c(O)cc(O)cc2O[C@@H]1c1cc(O)c(O)c(O)c1)c1cc(O)c(O)c(O)c1 [C2, (-)–epigallocatechin-3-gallate]",IC50,~100 µM
